According to publication PMC5651230, “TMC2 Modifies Permeation Properties of the Mechanoelectrical Transducer Channel in Early Postnatal Mouse Cochlear Outer Hair Cells” (Frontiers in Molecular Neuroscience, 2017):

Key:
[1] = tested on: T1, MET channel of Tmc2+/− outer hair cells (TMC1 and TMC2); assay: whole-cell patch clamp of OHC, block of MET current (fluid jet), Hill fit; assay type: cell-based, Mus musculus; conditions: extracellular DHS, -81 mV, 1.3 mM Ca2+, pH 7.5, 20-25 °C; permeant open-channel pore blocker; native channel complex of Tmc2 heterozygous OHCs (P5-P6); read-out: KD
T1 construct: native MET channel complex in apical cochlear OHCs (P5-P6) of heterozygous control mice; mixture of TMC1 and TMC2 in unknown proportion; with LHFPL tetraspan subfamily member 5 protein; Transmembrane inner ear expressed protein

[2] = biological target: T2, MET channel of Tmc2−/− outer hair cells (TMC1-containing channel) (Mus musculus, UniProt Q8R4P5); assay: as above; assay type: cell-based; conditions: extracellular DHS, -81 mV, 1.3 mM Ca2+, pH 7.5, 20-25 °C; permeant open-channel pore blocker; native channel complex of Tmc2 knockout OHCs (P5-P6); read-out: KD
T2 construct: native MET channel complex in apical cochlear OHCs (P5-P6) of Tmc2 knockout mice; TMC1 the remaining TMC; full composition not known; with LHFPL tetraspan subfamily member 5 protein; Transmembrane inner ear expressed protein
T2 sequence (Q8R4P5 1-757): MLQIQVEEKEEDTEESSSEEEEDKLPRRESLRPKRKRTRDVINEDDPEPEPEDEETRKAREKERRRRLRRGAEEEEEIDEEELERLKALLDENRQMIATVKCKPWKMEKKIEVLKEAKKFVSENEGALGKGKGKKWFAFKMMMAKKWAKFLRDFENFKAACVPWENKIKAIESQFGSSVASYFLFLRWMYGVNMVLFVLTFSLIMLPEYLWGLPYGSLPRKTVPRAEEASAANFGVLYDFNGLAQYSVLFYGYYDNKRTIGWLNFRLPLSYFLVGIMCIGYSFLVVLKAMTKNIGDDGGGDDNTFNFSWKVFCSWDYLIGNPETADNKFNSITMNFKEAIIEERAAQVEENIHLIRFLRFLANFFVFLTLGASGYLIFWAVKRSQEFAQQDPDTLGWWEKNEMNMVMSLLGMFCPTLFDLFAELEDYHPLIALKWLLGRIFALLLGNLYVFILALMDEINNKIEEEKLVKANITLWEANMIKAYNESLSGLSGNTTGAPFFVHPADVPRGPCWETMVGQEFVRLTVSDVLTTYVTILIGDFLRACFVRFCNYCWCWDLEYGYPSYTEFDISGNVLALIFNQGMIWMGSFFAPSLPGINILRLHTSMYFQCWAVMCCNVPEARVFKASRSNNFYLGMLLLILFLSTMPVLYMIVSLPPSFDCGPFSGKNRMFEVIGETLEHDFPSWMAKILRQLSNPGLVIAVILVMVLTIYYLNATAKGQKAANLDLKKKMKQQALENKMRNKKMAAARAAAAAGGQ

Work on CN[C@@H]1[C@H](O[C@H]2[C@H](O[C@H]3[C@H](O)[C@@H](O)[C@H](NC(=N)N)[C@@H](O)[C@@H]3NC(=N)N)O[C@@H](C)[C@]2(O)CO)O[C@@H](CO)[C@H](O)[C@H]1O [dihydrostreptomycin] yielded an IC50 [1] of 9.1 ± 0.4 µM and an IC50 [2] of 5.9 ± 0.2 µM.
